What follows are molecules tested on Plasmodium falciparum (assay: GSK_TCMDC: Inhibition of Plasmodium falciparum 3D7 in whole erythrocytes, using parasite LDH activity as an index of growth.). Conditions: Plasmodium falciparum, 3D7.
Type: functional, organism-based

| SMILES | XC50 |
| --- | --- |
| COCCOc1cccc(CN2CCC(c3cc4nc(C)cc(C(F)(F)F)n4n3)C2)c1 (configuration not stated) | 1330 nM |
| CN(C)CCOc1cc(NC(=O)Nc2cccc([N+](=O)[O-])c2)ccc1I | 743 nM |
| Cc1ccc(S(=O)(=O)N(CCCNCc2cccc(O)c2)c2ccccc2)cc1 | 767 nM |
| CC(C)CNCc1cccc(-c2cccc(CN(C(=O)Nc3ccccc3)C3CCN(Cc4ccccc4)CC3)c2)c1 | 369 nM |
| CC(C)(CNC(=O)C1CCN(CC2CCCCC2)CC1)c1nc(-c2ccc(Cl)c(O)c2)c(-c2ccncc2)[nH]1 | 888 nM |
| C[C@@H](NC(=O)c1nn(-c2ccc(Cl)cc2)c(=O)c2ccccc12)C(C)(C)C | 1120 nM |
| O=C(Cc1c[nH]cn1)Nc1cccc(-c2ccc(-c3nc4cc(C(F)(F)F)ccc4[nH]3)cc2)c1 | 700 nM |
| C=C[C@H]1CN2CC[C@H]1C[C@H]2[C@H](OS(=O)(=O)O)c1ccnc2ccccc12 | 624 nM |
| Cc1[nH]c(C)c(-c2ccc(OCc3ccccc3)cc2)c(=O)c1Br | 280 nM |
| Cc1cccc(NC(=O)c2cnc(N3CCN(c4ccncc4)CC3)c(Cl)c2)c1 | 678 nM |
| CCC[C@@H]([C@@H](Cc1ccc(C)s1)C(=O)N[C@@H](CNC(C)=O)C(=O)Nc1nccs1)N(O)C=O | 176 nM |
| Fc1ccc2[nH]c(-c3cccc(-c4ccc(CN5CCN(c6cnccn6)CC5)cc4)c3)nc2c1 | 893 nM |
| Cc1onc(-c2c(F)cccc2Cl)c1C(=O)Nc1ccccc1I | 952 nM |
| FC(F)(F)c1ccc2c(NCCCNc3ccnc4cc(C(F)(F)F)ccc34)ccnc2c1 | 31.5 nM |
| CCOC(=O)c1ccc(NC(=O)N(Cc2ccc(-c3ccc(CN4CCNCC4)cc3)cc2)C2CCN(Cc3ccccc3)CC2)cc1 | 797 nM |
| Cc1nc(-c2ccc(C(F)(F)F)cn2)sc1C(=O)N1CCc2cc3nccc(N4CCN5CCC[C@H]5C4)c3cc21 | 784 nM |
| O=C(Nc1cc(Oc2ccc(O)cc2)cc([N+](=O)[O-])c1)c1cc(-c2ccc(F)cc2)no1 | 955 nM |
| COc1cc2c(cc1S(=O)(=O)c1ccc(NC(=O)Nc3ccc(F)cc3)cc1)CCN(C)CC2 | 473 nM |
| CCNc1cc(C(=O)N[C@@H](Cc2ccccc2)[C@H](O)CNCC(C)C)cc(N2CCCC2=O)c1 | 485 nM |
| CC(C)CNCc1ccc(-c2cccc(CN(CCCN3CCN(C)CC3)C(=O)/C=C/c3ccccc3)c2)cc1 | 872 nM |
| Cc1cccc(C(=O)NC(NC(=S)Nc2ccc([N+](=O)[O-])cc2)C(Cl)(Cl)Cl)c1 (configuration not stated) | 744 nM |
| O=C(NCc1cccc(C(F)(F)F)c1)C(c1cc2ccccc2o1)N1CCN(C(c2ccccc2)c2ccccc2)CC1 (configuration not stated) | 498 nM |
| COc1ccc(-c2ccc(NC(=O)c3cccc(Cl)c3)cc2)cc1CN1CCN(C)CC1 | 951 nM |
| CN1CCN(c2ccnc3ccc(NC(=O)Nc4c(Cl)cccc4Cl)cc23)CC1 | 877 nM |
| O=C(CCCCCNC(=O)c1ccc(O)c(-c2ccc(Cl)c(Cl)c2)c1)NC1CCCCCC1 | 947 nM |

| SMILES | XC50 |
| --- | --- |
| CC(=O)Nc1ccc(S(=O)(=O)N2CCN(c3nc(NC4CCCC4)c4ccccc4n3)CC2)cc1 | 1030 nM |
| Cc1ccc(NC(=S)NC2CCN(CCCCCNC(=O)/C=C/c3ccc(Cl)c(Cl)c3)CC2)cc1Cl | 992 nM |
| NC(=O)C1CCN(Cc2ccc(-c3cccc(-c4nc5cc(F)ccc5[nH]4)c3)cc2)CC1 | 879 nM |
| CC(C)(C)C/C=C\c1ccc(C(=O)NCC2CC2)cc1 | 850 nM |
| Nc1ncc(Cc2ccc3c(ccc4ccccc43)c2)c(N)n1 | 758 nM |
| CC(C)(C)OC(=O)Nc1cccc(-c2csc(NC(=N)N)n2)c1 | 836 nM |
| CCc1ccc(NC(=O)c2cccc(CN3CCCN(Cc4cccc(O)c4)CC3)c2)cc1 | 894 nM |
| Cc1cc(C(=O)Nc2nc(-c3ccccn3)nc3ccsc23)no1 | 807 nM |
| Cc1nn(C)c(C)c1CN(Cc1nc(-c2cccc(Oc3ccccc3)c2)oc1C)C1CC1 | 392 nM |
| Cc1c(N)ccc2[nH]c(-c3ccc(N)cc3)nc12 | 1210 nM |
| O=C(Nc1ccc(S(=O)(=O)N2CCCCC2)cc1)c1cc(-c2ccccc2O)n[nH]1 | 846 nM |
| COc1ccc(N2CCN(CCCCNC(=O)c3ccc(NC(=O)c4cccc(Cl)c4)cc3)CC2)c(OC)c1 | 911 nM |
| Cc1c2c(nn1-c1ccccc1)C(c1ccccc1)N(c1ccccc1)C2=O (configuration not stated) | 147 nM |
| O=C(Nc1ccc(Cl)cc1)N[C@H]1CCN(Cc2ccc(OCCCN3CCCCC3)cc2)C1 | 671 nM |
| Cc1nc2ccccc2c(O)c1[N+](=O)[O-] | 1110 nM |
| COc1cccc(C(C)(C)NC[C@@H](O)[C@H](Cc2ccccc2)NC(=O)c2cc(C3CCCC3)cc(N3CCCCS3(=O)=O)c2F)c1 | 28.9 nM |
| COc1cc(Cc2cnc(N)nc2N)cc(OCCCCC2SC(=O)NC2=O)c1Br (configuration not stated) | 123 nM |
| O=S(=O)(NCCN1CCCC1)c1ccc(-c2cccc(CNCc3ccc(F)cc3)c2)cc1F | 787 nM |
| CCC(C)CN1CCC(N(C)c2cc(NC(=O)c3ccc(F)cc3)ccn2)CC1 (configuration not stated) | 977 nM |
| COCC(C)n1c(C)cc(C(=O)CSc2nnc(Nc3ccccc3)s2)c1C (configuration not stated) | 736 nM |
| O=c1cc(NCCCNC2CCOc3c(Cl)cccc32)[nH]c2ccccc12 (configuration not stated) | 832 nM |
| Cc1cc(N)nc2cc(CNCCc3ccccc3Br)ccc12 | 129 nM |
| CC(=O)Nc1ncc(C(=O)Nc2ccc(-c3cccc(-c4nc5cc(C(F)(F)F)ccc5[nH]4)c3)cc2)s1 | 260 nM |
| Cc1cc(O)c(-c2ccc(Sc3ccc(Cl)cc3)cc2)c(C)n1 | 969 nM |
| COc1ccc2nccc([C@@H](O)CN3CCC(NCCOc4ccc(F)cc4[N+](=O)[O-])CC3)c2c1 | 116 nM |

| SMILES | XC50 |
| --- | --- |
| O=C(NCC1CCC(CNCCc2ccccc2)CC1)Nc1ccc(Cl)c(Cl)c1 (configuration not stated) | 745 nM |
| CCN(CC)CCCNc1ncc2c(-c3ccc(NC(=O)Nc4cc(C(F)(F)F)ccc4F)cc3)nn(C)c2n1 | 220 nM |
| CC(Cc1ccc(SCCSc2ccccc2)cc1)NCC(O)c1cccc(Cl)c1 (configuration not stated) | 367 nM |
| COc1ccc(C(=O)NCCCCN2CCC(c3ccc4c(c3OC)CCCC4)CC2)cc1-c1ccc(C(F)(F)F)cc1 | 755 nM |
| C=C1C(C(=O)OCC)=CN(CC)c2cc(O[C@H]3CCN(C(=O)OC(C)(C)C)C3)ccc21 | 548 nM |
| CN/C(=C\[N+](=O)[O-])NCCSCc1cc(C)c(CN(C)C)s1 | 348 nM |
| Cn1nc(-c2ccc(CNC3CCc4ccccc43)cc2)c2cnc(NCCCN3CCCC3)nc21 (configuration not stated) | 1110 nM |
| O=C(O)c1ccc2c(c1)N(C(=O)CNCc1ccc(F)cc1)CC(=O)N2CCCc1ccccc1 | 919 nM |
| Cc1ccc(O)cc1Nc1ccnc2ccc(-c3cccc(CN(C)C)c3)cc12 | 515 nM |
| CN1CCN(Cc2cc(NC(=O)c3ccc(-c4ccc(Cl)cc4Cl)cc3)ccc2-c2ccccc2)CC1 | 973 nM |
| COc1ccc(-c2cnc(N)nc2N)cc1Cl | 1400 nM |
| N#CCc1ccc(Nc2nccc(Nc3ccc(Oc4ccccc4)cc3)n2)cc1 | 805 nM |
| CC(=O)c1ccc(-c2ccc(C(=O)NCCCCN3CCC(c4ccc5c(c4O)CCCC5)CC3)cc2)cc1 | 762 nM |
| COc1ccc(-c2csc3ncnc(Cl)c23)cc1 | 781 nM |
| O=C(Nc1nccs1)c1cc(-c2cccnc2)nc2ccc(Br)cc12 | 403 nM |
| CC(C)(C)c1ccc(-c2cc(C(=O)N[C@@H](CO)C(=O)O)on2)cc1.CC(C)(C)c1ccc(-c2nocc2C(=O)N[C@@H](CO)C(=O)O)cc1 | 966 nM |
| O=c1c2c([nH]c3cc(Cl)ccc13)CCCC2 | 810 nM |
| COc1ccccc1NC(=O)NC1CCN(CCCCCNC(=O)/C=C/c2ccc(Cl)c(Cl)c2)CC1 | 746 nM |
| COc1ccc([N+](=O)[O-])cc1N(Cc1ccccc1-c1ccccc1)S(=O)(=O)c1ccc(C(F)(F)F)cc1 | 784 nM |
| CC(C)(C)c1ccc(CNC(=O)c2ccc(CNC3CCC(N)CC3)s2)cc1 (configuration not stated) | 531 nM |
| CCN(CC)CCCC(C)Nc1c(-c2ccc(Br)cc2)cnc2ccccc12 (configuration not stated) | 703 nM |
| O=C(Nc1ccc(-c2nc3ccccc3[nH]2)cc1)c1ccc([N+](=O)[O-])s1 | 252 nM |
| COc1ccc2c(=NN=Cc3cccc(C)n3)cc(-c3ccccc3)[nH]c2c1 | 751 nM |
| COC(=O)C(Cc1ccccc1)C(CSCc1ccc(OC)cc1)C(=O)N[C@@H](C(=O)OC(C)(C)C)c1ccc(C(C)(C)C)cc1 (some centres not stated) | 1030 nM |
| Ic1cc(Nc2ncnc3ccsc23)ccc1OCc1ccccc1 | 773 nM |

| SMILES | XC50 |
| --- | --- |
| CC1(C)NC(N)=NC(=N)N1OCCSCc1cc(Cl)sc1Cl | 3.2 nM |
| CCOc1ccccc1CNc1nccc(NCCc2cn(C)c3ccccc23)n1 | 1260 nM |
| Fc1ccc2[nH]c(-c3ccc(-c4ccc(CN5CCCCC5)cc4)s3)nc2c1 | 602 nM |
| O=C(Nc1ccccc1O)c1ccc(S(=O)(=O)c2ccc(Cl)cc2)cc1 | 1350 nM |
| CC(CCc1ccc(OCc2ccccc2)cc1)NCC(O)c1ccccc1 (configuration not stated) | 1100 nM |
| CCOC(=O)c1c[nH]c2c(sc3cc(OC)ccc32)c1=O | 387 nM |
| Cc1nc(N/C(N)=N/C(=O)NC2CCCCC2)nc2ccccc12 | 791 nM |
| CCN(CC)/C(=N/C(=N)Nc1ccc(C)cc1)NCCCCCCN/C(=N\C(=N)Nc1ccc(C)cc1)N(CC)CC | 539 nM |
| Cc1cc(F)ccc1C1CCN(CCCCNC(=O)c2ccc(NC(=O)c3ccc(Cl)cc3)cc2)CC1 | 692 nM |
| Cc1c(C(=O)C2CC2CN2CCC(N3CCCC3)CC2)sc2ccccc12 (configuration not stated) | 1400 nM |
| O=C(c1cc(-c2ccco2)n[nH]1)N1CCN(S(=O)(=O)c2ccc(Br)cc2)CC1 | 497 nM |
| CCC/C=C/c1c(CNCCCNc2cc(=O)c3ccccc3[nH]2)sc(CC)c1Br | 889 nM |
| COc1ccc(CCN2CC[C@H](Nc3nc(-c4ccc(F)c(F)c4)nc4ccccc34)C2)cc1S(N)(=O)=O | 789 nM |
| COCc1nc(N)nc(N)c1-c1ccc(Cl)c(Cl)c1 | 1020 nM |
| COc1ccc2nccc(NC(=O)C3CCC(NCc4ccc5c(c4)NC(=O)CS5)CC3)c2c1 (configuration not stated) | 586 nM |
| Oc1ccc(CNCCCCCCNCCc2ccc(Cl)cc2)cc1O | 989 nM |
| Cc1ccc(NC(=O)c2cccc(CN3CCCN(Cc4cccc(O)c4)CC3)c2)cc1F | 705 nM |
| COc1cccc([C@@H](CC(=O)Nc2cc(C(F)(F)F)ccc2OC)Nc2ccc(C#N)c3ccccc23)c1 | 993 nM |
| O=C(/C=C/c1ccc(Cl)c(Cl)c1)NCCCCCN1CCCC(c2c[nH]c3ccccc23)C1 (configuration not stated) | 812 nM |
| CCc1nc(N)nc(N)c1-c1cccc(Cl)c1 | 193 nM |
| CCOC(=O)c1ccc(NC(=O)N(Cc2ccc(-c3cccc(CN4CCNCC4)c3)cc2)C2CCN(Cc3ccccc3)CC2)cc1 | 748 nM |
| Cc1cc(-c2cccc(CNC3CCCC3)c2)ccc1S(=O)(=O)NCCN1CCCC1 | 1240 nM |

From ChEMBL document CHEMBL1157539, “Thousands of chemical starting points for antimalarial lead identification” (Nature, 2010)
